Test results as given in US4150135A, “Substituted 4a-phenyl-N-phenylalkyl-cis-decahydroisoquinolines” (priority 1977, dated 1979).
Structures can show the parent of a compound that is named as a salt.

Tested on: not given
Assay: not given
Conditions: J. Am. Chem. Soc. 72, 712 (1950); cited from earlier work

In the case of `CN1CC[C@]2(c3ccccc3)CCCC[C@@H]2C1` (relative stereo) [N-Methyl-4a-phenyl-cis-decahydroisoquinoline], the analgesic activity is given as “low analgesic activity”.

Tested on: mice (phenylquinone-induced stretching or writhing syndrome)
Assay: standard phenylquinone writhing test (PQW), oral analgesia in mice
Format: in vivo, female white mice
Conditions: Mus musculus, po, read-out: PQW ED50
Experimental: A standard procedure for detecting and comparing the analgesic activity of compounds in this series for which there is good correlation with human efficacy is the standard phenylquinone writhing test (PQW) modified from Siegmund, et al., Proc. Soc. Exp. Biol. Med. 95, 729 (1957). A test compound suspended in 1% methylcellulose was given orally to fasted (17-21 hours) female white mice, 5-20 animals per dose in a double blind test. Aqueous (0.01% phenyl-p-benzoquinone) phenylquinone was injected intraperitoneally at 23 or 30 minutes later using 0.20 ml per mouse. […] The effective analgesic dose for 50% of the mice (ED 50) was calculated by the moving average method of Weil, Biometrics 8, 249 (1952).

`CN1CC[C@]23c4c5ccc(O)c4O[C@H]2[C@@H](O)C=C[C@H]3[C@H]1C5` [Morphine H2 SO4, reference compound] gave an ED50 of 1.6 mg/kg.

Same assay, conditions: Mus musculus, po; mice; phenylquinone i.p.; effective analgesic dose for 50% of the mice (Table II); read-out: PQW ED50

In order of rising ED50:
1. CN1CCC2(c3cccc(O)c3)CCCCC2C1 (stereo not drawn) [CH3 m-OH]  2.9 mg/kg
2. COc1ccc2c3c1O[C@H]1[C@@H](O)C=C[C@H]4[C@@H](C2)N(C)CC[C@@]341 [Codeine H3 PO4, reference compound]  8 mg/kg
3. Oc1ccc2c3c1O[C@H]1[C@@H](O)CC[C@@]4(O)[C@@H](C2)N(CC2CCC2)CC[C@]314 [Nalbuphine HCl, reference compound]  8.4 mg/kg
4. Cc1ccc(CCN2CCC3(c4cccc(O)c4)CCCCC3C2)cc1 (stereo not drawn)  9.7 mg/kg
5. COc1cccc(C23CCCCC2CN(CCc2ccc(C)cc2)CC3)c1 (stereo not drawn)  11 mg/kg
6. COc1cccc(C23CCCCC2CN(CC2CC2)CC3)c1 (stereo not drawn)  14 mg/kg
7. COc1cccc(C23CCCCC2CN(CCc2ccccc2)CC3)c1 (stereo not drawn)  14.5 mg/kg
8. COc1cccc(C23CCCCC2CN(CCc2ccc(N(C)C)cc2)CC3)c1 (stereo not drawn)  15.1 mg/kg
9. COc1cccc(C23CCCCC2CN(CCc2ccc(Cl)cc2)CC3)c1 (stereo not drawn)  16 mg/kg
10. COc1cccc(C23CCCCC2CN(CC2CCC2)CC3)c1 (stereo not drawn)  18.5 mg/kg
11. Oc1cccc(C23CCCCC2CN(CC2CC2)CC3)c1 (stereo not drawn)  20 mg/kg
12. Oc1cccc(C23CCCCC2CN(CC2CCC2)CC3)c1 (stereo not drawn)  20 mg/kg
13. CCCCCN1CCC2(c3cccc(OC)c3)CCCCC2C1 (stereo not drawn) [C5 H11 m-OCH3]  20 mg/kg
14. Oc1cccc(C23CCCCC2CN(CCc2ccccc2)CC3)c1 (stereo not drawn)  21 mg/kg
15. Oc1cccc(C23CCCCC2CN(CCc2cccs2)CC3)c1 (stereo not drawn)  24 mg/kg
16. COc1cccc(C23CCCCC2CN(CCc2ccco2)CC3)c1 (stereo not drawn)  25 mg/kg
17. CN1CC[C@]2(c3ccc(F)cc3)CCCC[C@@H]2C1 (relative stereo) [CH3 p-F, N-methyl-4a-(p-fluorophenyl)-cis-decahydroisoquinoline]  26 mg/kg
18. COc1cccc(C23CCCCC2CN(CCc2cccs2)CC3)c1 (stereo not drawn)  27 mg/kg
19. CC(=O)Oc1cccc(C23CCCCC2CN(CCc2cccs2)CC3)c1 (stereo not drawn)  27 mg/kg
20. Oc1cccc(C23CCCCC2CN(CCc2ccc(Cl)cc2)CC3)c1 (stereo not drawn)  28 mg/kg
21. COc1cccc(C23CCCCC2CN(CCc2ccc(F)cc2)CC3)c1 (stereo not drawn)  33 mg/kg
22. CC(C)=CCN1CC[C@]2(c3cccc(O)c3)CCCC[C@@H]2C1 (relative stereo) [CH2CHC(CH3)2 m-OH, N-(3,3-Dimethylallyl)-4a-(m-hydroxyphenyl)-cis-decahydroisoquinoline]  40 mg/kg
23. C=CCN1CC[C@]2(c3cccc(O)c3)CCCC[C@@H]2C1 (relative stereo) [CH2CHCH2 m-OH, N-Allyl-4a-(m-hydroxyphenyl)-cis-decahydroisoquinoline]  43 mg/kg
24. CC(C)=CCN1CCC2(C)c3cc(O)ccc3CC1C2C.Cl (stereo not drawn) [Pentazocine HCl, reference compound]  57 mg/kg
25. CC(=O)Oc1ccccc1C(=O)O [Aspirin, reference compound]  109 mg/kg

Same assay, conditions: Mus musculus, po; mouse (Table III, additional compounds); read-out: Mouse ED50 Analgesia (PQW)-Oral

In order of falling ED50:
1. COc1cccc(C23CCN(Cc4ccco4)CC2CCC(C)C3)c1 (stereo not drawn) [Example 28, N-(2-Furylmethyl)-4a-m-methoxyphenyl-6β-methyl-cis-decahydroisoquinoline]  61 mg/kg
2. CC1CCC2CN(CC3CCC3)CCC2(c2cccc(O)c2)C1 (stereo not drawn) [Example 22-C, N-Cyclobutylmethyl-4a-m-hydroxyphenyl-6β-methyl-cis-decahydroisoquinoline]  54 mg/kg
3. COc1cccc(C23CCN(CCc4ccc(C)cc4)CC2CCC(C)C3)c1 (stereo not drawn) [Example 20-G, N-(p-Tolylethyl)-4a-m-methoxyphenyl-6β-methyl-cis-decahydroisoquinoline]  28 mg/kg
4. CC1CCC2CN(CCc3ccccc3)CCC2(c2cccc(O)c2)C1 (stereo not drawn) [Example 27-C, N-Phenethyl-4a-m-hydroxyphenyl-6β-methyl-cis-decahydroisoquinoline]  10.8 mg/kg
5. COc1cccc(C23CCN(C)CC2CCC(C)C3)c1 (stereo not drawn) [Example 23, N-Methyl-4a-m-methoxyphenyl-6β-methyl-cis-decahydroisoquinoline]  3.5 mg/kg

Same assay, conditions: oral; mouse (Table III, additional compounds)

With `COc1cccc(C23CCN(CCc4ccc(C)cc4)CC2CCC(C)C3)c1` (stereo not drawn) [Example 20-G, N-(p-Tolylethyl)-4a-m-methoxyphenyl-6β-methyl-cis-decahydroisoquinoline] the “Mouse ED50 Analgesia (PQW)-Oral” value was 22 mg/kg.
